# Earlier results as cited in patent US20100136096A1, “Systems for modulating inflammation” (Searete LLC, a limited liability corporation of the State …, priority 2008, published 2010).
# Columns and labels:
# [1] = system: proteasomal activity; settings: cultured breast cancer cells; disulfiram bound to copper; Chen et al. 2006
# [2] = system: aldehyde dehydrogenase
# [3] = system: Src family kinase; settings: Sanjuan et al. 2006
# [4] = system: lethal septic shock; settings: mice; Nakamura et al. 2007
# [5] = single agent, 400 mg infused over one hour; Looareesuwan et al. 1986
# [6] = system: Src family kinases (Src, Lck, Yes, Fyn); settings: at nanomolar concentrations
compound,measurement,setting,value
"CCN(CC)C(=S)SSC(=S)N(CC)CC [disulfiram, 1-(diethylthiocarbamoyldisulfanyl)-N,N-diethyl-methanethioamide]",proteasomal activity,[1],inhibits proteasomal activity
same,inhibition of aldehyde dehydrogenase,[2],inhibits aldehyde dehydrogenase without toxicity
CCN(CC)CCCC(C)Nc1ccnc2cc(Cl)ccc12 (stereo not drawn) [Chloroquine],"inhibition of CpG-induced Src family kinase activation, or its dependent cellular responses",[3],does not inhibit
"Cl.Cl.Nc1ccccc1Oc1ccc2c(N)nsc2c1 [Example M62812, 3-amino-6-(2-aminophenoxy)-1,2-benzisothiazole dihydrochloride]",prevention of lethal septic shock,[4],prevents lethal septic shock
"CCN(CC)CCCC(C)Nc1ccnc2cc(Cl)ccc12.O=P(O)(O)O.O=P(O)(O)O (stereo not drawn) [chloroquine phosphate, 7-chloro-4-[[4-(diethylamino)-1-methylbutyl]amino]quinoline phosphate (1:2)]",tolerability of intravenous infusion,[5],without complication
"Cc1nc(Nc2ncc(C(=O)Nc3c(C)cccc3Cl)s2)cc(N2CCN(CCO)CC2)n1.O [dasatinib, N-(2-chloro-6-methylphenyl)-2-[[6-[4-(2-hydroxyethyl)-1-piperazinyl]-2-methyl-4-pyrimidinyl]amino]-5-thiazolecarboxamide, monohydrate]","inhibition of Src family kinases (Src, Lck, Yes, Fyn)",[6],inhibits
